Data set [1] relates to kainic acid (kainate) receptor. As to the kind of experiment: selectivity study at other ionotropic excitatory amino acid receptors: kainate. The data set is classed as binding. The protocol: (§1) The potent and selective action of the compound of the invention at the strychnine-insensitive glycine binding site present on the NMDA receptor complex may be readily determined using conventional test procedures. Thus the ability to bind at the strychnine insensitive glycine binding site was determined using the procedure of Kishimoto H et al., J Neurochem 1981, 37, 1015-1024. The selectivity of the action of compounds of the invention for the strychnine insensitive glycine site was confirmed in studies at other ionotropic known excitatory amino acid receptors.

Data set [2] concerns a-amino-3-hydroxy-5-methyl-4-isoxazole-proprionic acid (AMPA) receptor. As to the kind of experiment: selectivity study at other ionotropic excitatory amino acid receptors: AMPA. The format is binding. On the procedure: as §1
Another data set concerns mice. As to the kind of experiment: tolerability on administration to mice. The format is in vivo. Particulars: pharmacological active doses.
The subject of a further data set is NMDA binding site. As to the kind of experiment: selectivity study at other ionotropic excitatory amino acid receptors: NMDA binding site. On the procedure:
as §1

For data set [3], the target named is T1, strychnine insensitive glycine binding site associated with the NMDA receptor complex (Rattus norvegicus, UniProt P35439).
T1 construct: from tissue; host or cells: rat CNS membranes (inferred from the cited procedure)
As to the kind of experiment: binding at the strychnine insensitive glycine binding site (procedure of Kishimoto H et al.). On the procedure:
as §1

The structures appear in SMILES notation.

For `CNC[C@H](O)[C@@H](O)[C@H](O)[C@H](O)CO.O=C(O)C1CC(=C2CCN(c3ccccc3)C2=O)c2ccc(Cl)cc2N1` (single isomer, unassigned; enantiomer a) [compound of the invention, meglumine salt of enantiomer A of 7-chloro-4-(2-oxo-1-phenyl-3-pyrrolidinylidene)-1,2,3,4-tetrahydro-2-quinolinecarboxylic acid], the “affinity for the kainic acid (kainate) receptor” value in data set [1] is recorded as “little or no affinity”. Besides, in data set [2], the “affinity for the AMPA receptor” value is recorded as “little or no affinity”. In the data set on mice, the untoward effects result is “No untoward effects”. Besides, the “affinity at the NMDA binding site” value with NMDA binding site is “little or no affinity”. For the same compound, the “antagonism at the strychnine insensitive glycine binding site” value in data set [3] was “potent antagonist”.

The values above are taken from patent US6713491B2, “Heterocyclic derivatives” (priority 1999, dated 2004).
